“And” between values parts separate entries of the source, which are not always exact repeats. Equal values may be shown once. “Also recorded” adds a separate entry of the source. Read-outs that look alike come from different tables or passages of the source.
Key:
soybean [1] = assay: Seed treatment of soybean, field yield trials; assay type: in vivo; conditions: for Average Yield Bu/Ac / Average Change in Bu/Ac compared to Untreated Control: seed treatment on base ST; for Average Yield Bu/Ac: 1 variety, 1 location, four replicate plots
citrus trees [2] = assay type: in vivo, Citrus sinensis; Citrus×paradisi; conditions: Valencia orange and Ruby Red grapefruit, 1× and 10× injection April 2017, measured June 2018
citrus trees [3] = conditions: for Flush length (% of control) / Average Flush Length (inches): injected April 2017, measured May 2018; for more new branch growth than untreated control: orange
[4] = system: Candidatus Liberibacter asiaticus; conditions: in vivo
[5] = system: reactive oxygen species (ROS) production in Kiwi 'Hayward' leaf petioles; assay: ROS activity assay in kiwi leaf petioles; assay type: cell-based, Actinidiae deliciosa; conditions: 100 nM peptide; Kiwi 'Hayward' leaf petiole slices; 40 minutes time course
Experimental: To test the sensitivity of kiwi leaves to 22-amino acid fragments of flagellin, 1 mm slices were cut through Actinidiae deliciosa Kiwi ‘Hayward’ leaf petioles and floated in 150 μL of water in a 96-well plate, with one slice per well. […] In two independent experiments, a total of 6 kiwi leaf petiole samples were treated with each Flg22 polypeptide in Table 94. The average total RLU and standard error of the means (SEM) was calculated for each treatment. A two-tailed T-test was used to determine significance at the 90% confidence level (P<0.1) between treatments. Relative ROS production was determined for each polypeptide in comparison to total RLUs for the 100 nM Bt.4Q7Flg22 control.

soybean [6] = assay: Soybean nodulation, root biomass and total biomass after foliar application; assay type: in vivo
Experimental: Effective nodulation of soybean roots result in higher yields and higher quality seed production, protein and oil per seed or acre basis. This could be due to increased nitrogen fixation since nodulale formation increases nitrogen fixation. To determine whether root hair promoting bioactive priming polypeptide, RHPP (SEQ ID NO: 600) could modulate root biomass and nodulation and thereby improve nitrogen fixation, soybean plants (hybrid Morsoy 38X52 and Beck's hybrid 297R4) were treated with foliar application of RHPP (300 nM) at the R1-R2 stage of development.
RHPP bioactive priming polypeptide (SEQ ID NO: 600, originally derived from Glycine max) was applied as foliar treatment to 4-week-old hybrid soybean (Morsoy variety) with 0.1% (v/v) non-ionic surfactant ([…] SURFACE™) using a spray bottle and delivering approximately 1.25 ml/plant. The experiment was conducted using a total of 8 plants per trial per treatment group. […] Growth parameters of nodule counts, root biomass and total biomass per plant were measured at 15 days post the foliar application and compared between the foliar treatments consisting of […] SURFACE surfactant (0.1% v/v) as a control and the RHPP polypeptide (300 nM) containing the […] SURFACE surfactant (0.1% v/v). Average growth parameters as described were normalized to the control plants that received the surfactant alone treatment (Table 38).

soybean [7] = assay: Foliar application to soybean in growth room, plant height (non-stress, heat and water deficit stress); assay type: in vivo; conditions: 300 nM + 0.1% ALLIGARE SURFACE
Experimental: Ec.Flg22 (SEQ ID NO: 527) was applied to soybean (Beck's 297NR).
Plant height (cm) was measured just prior to the foliar application delivered at 3 weeks and then again 2 weeks later when the plants were 5-weeks-old. Two replicate trials were conducted using 18 plants per trial.
Soybean plants were grown as described in Example 6. The At.PSKα polypeptide (SEQ ID NO: 598) was applied as a foliar spray to the plants at the V1-V4 stage. Soybean plants treated with foliar applications of At.PSKα and control plants treated with water and surfactant alone were then grown in conditions described in Examples 7-9 that produced a non-stress and stress (heat and water deficit) environments. Table 37 describes the percentage change or increase in height reported for soybean plants treated with At.PSKα as a foliar spray at the V1-V4 growth stage.
RHPP bioactive priming polypeptide (SEQ ID NO: 600) was also applied as foliar treatment to R1 stage hybrid soybean (Beck's 297R4) with 0.1% (v/v) non-ionic surfactant ([…] SURFACE) using a spray bottle delivering approximately 1.2 ml/plant. This experiment was performed to look at the effects of RHPP on plant growth and was conducted using a total of 18 plants per treatment group. […] R1 stage soybean plants were treated with nothing (non-treated control), […] SURFACE surfactant applied at a concentration of 0.1% (v/v) or the RHPP polypeptide (300 nM) applied in combination with […] SURFACE surfactant (0.1% v/v). Height for each plant was recorded at the time of spray and again at 16 days post foliar application and average growth parameters were compared between foliar treatments (Table 39).

soybean [8] = assay: Soybean pod number after foliar application; assay type: in vivo; conditions: 300 nM at R1 and 17 days later, counted after 31 days
Experimental: Plants were then placed under a long day conditions consisting of 16/8 light/day cycle and temperature 21-26° C. to promote early flowering and speed up progression to the reproductive (R) growth stage. When the soybean plants had reached the R1 stage of development a foliar application containing the Gm.RHPP (SEQ ID NO: 600) polypeptide at a final concentration of 300 nM and a non-ionic surfactant of 0.10% (NIS90:10; Precision Laboratories, LLC) was applied to soybean. Soybean plants were provided with the Gm.RHPP formulation and a non-ionic surfactant only control. Both the Gm.RHPP and the non-ionic surfactant control treatment were applied to 18 plants per treatment. Six equidistant sprays were provided approximately 15 cm above per each plant for complete coverage of foliage. After treatment application, the R1 soybean plants were returned to the control environmental growth room. […] Soybean pods of more than 1 mm in length were counted on the plants after 31 days from the first foliar spray treatment applications. […] A p value (p<0.05 for significance) was calculated from a paired T-test comparison between pod number from plants that received the Gm.RHPP and the non-ionic surfactant control treatment applications.

[9] = polypeptide 0.25 μM (cellobiose 1 mM where combined)
[10] = polypeptide 1.0 μM (cellobiose 1 mM where combined)
[11] = 300 nM + 0.1% v/v ALLIGARE SURFACE, Morsoy soybean, 15 days post application
[12] = 300 nM + 0.1% v/v ALLIGARE SURFACE, Morsoy soybean, 15 days post foliar application, n = 8
[13] = 300 nM, Morsoy, 15 days post application

Bt.4Q7Flg22: Flg22 polypeptide (22 amino acids) from flagellin of Bacillus thuringiensis strain 4Q7 (DRLSSGKRINSASDDAAGLAIA; listed as Bacillus thuringiensis)
average yield increase over base seed treatment (soybean [1]; 1.0 μM, 0.14 Fl. oz per unit, Columbia Mo., 4 replicate plots): 5.11 Bu/Ac | Average Yield Bu/Ac (soybean [1]; [9]): 43.80 Bu/Ac | Average Yield Bu/Ac (soybean [1]; [10]): 46.22 Bu/Ac | Average Change in Bu/Ac compared to Untreated Control (soybean [1]; [9]): +2.69 Bu/Ac | Average Change in Bu/Ac compared to Untreated Control (soybean [1]; [10]): +5.11 Bu/Ac | win rate (soybean [1]; third study, 12 locations): 64% | yield benefit (soybean [1]; third study, 12 locations): 1.3 Bu/Ac | fruit per limb and fruit size vs untreated control (citrus trees [2]): increased fruit per limb and increased fruit size | phytotoxicity after trunk injection (citrus trees [3]; 1× or 10× rate): no phytotoxicity occurred | average new shoot length (citrus trees [3]; Hamlin and Vernia orange, trunk injection, two months after treatment): 3.84 inches | shoot length vs untreated control (printed as % longer) (citrus trees [3]; Hamlin and Vernia orange, two months after trunk injection or foliar spray): 25% | Flush length (% of control) (citrus trees [3]; Red Grapefruit, 1X, 0.138 μM): 135% | Average Flush Length (inches) (citrus trees [3]; Red Grapefruit, 1X, 0.138 μM, control 8.05): 10.83 inches | Flush length (% of control) (citrus trees [3]; Red Grapefruit, 10X, 1.38 μM): 113% | Average Flush Length (inches) (citrus trees [3]; Red Grapefruit, 10X, 1.38 μM, control 8.05): 9.13 inches | Flush length (% of control) (citrus trees [3]; Valencia Orange, 1X, 0.138 μM): 184% | Average Flush Length (inches) (citrus trees [3]; Valencia Orange, 1X, 0.138 μM, control 7.23): 13.33 inches | Flush length (% of control) (citrus trees [3]; Valencia Orange, 10X, 1.38 μM): 170% | Average Flush Length (inches) (citrus trees [3]; Valencia Orange, 10X, 1.38 μM, control 7.23): 12.29 inches | more new branch growth than untreated control (citrus trees [3]; 1× injection): 85% | more new branch growth than untreated control (citrus trees [3]; 1× injection April 2017, measured May 2018): 6.1 inches | Ct values vs control trees [4]: slightly higher Ct counts; also recorded: significantly higher Ct values | Percentage Reduction in CLas titer Normalized to the Control, Trial 1 [4]: 37% and 33% | reduction in CLas titer levels [4]: 37% and 43% | Average Total Relative Light Units (RLUs); SEM in parentheses [5]: 47,457 RLU

GGIRAAPTGNER (Glycine max) [RHPP, Root Hair Promoting Peptide from Glycine max]
win rate (soybean [1]; seed treatment, 11 sites): 73% | yield increase (soybean [1]; seed treatment, 11 sites): 1.2 bu/Ac | win rate (soybean [1]; third study, 12 locations): 64% | yield benefit (soybean [1]; third study, 12 locations): 0.4 Bu/Ac | Average nodule count per plant, RHPP treatment normalized as a percentage of the surfactant control (soybean [6]; [11]): 170.42% | Root biomass, RHPP treatment normalized as a percentage of the surfactant control (soybean [6]; [11]): 120.57% | Total biomass, RHPP treatment normalized as a percentage of the surfactant control (soybean [6]; [11]): 108.44% | Average nodule count per plant (soybean [6]; [12]): 15.13 | Root biomass (soybean [6]; [12]): 2.13 g | Total biomass (soybean [6]; [12]): 46.24 g | increase in root biomass normalized to control (soybean [6]; [13]): more than 20% | increase in total biomass normalized to control (soybean [6]; [13]): 8% | number of nodules per plant vs surfactant control (soybean [6]; [13]): approximately two times the number of nodules | plant height and change in plant height vs surfactant alone and non-treated (soybean [7]; R1, 16 days post application): increased plant growth (plant height) | Height (cm) (soybean [7]; soybean Beck's 297R4, R1 stage, 16 days post foliar application, n = 18): 19.9 cm | Change in height (cm) (soybean [7]; soybean Beck's 297R4, R1 stage, spray to 16 days post application, n = 18): 4.6 cm | pod count vs non-ionic surfactant control (soybean [8]): approximately doubled pod count
